US20020183290A1, “Adrenergic receptor antagonists selective for both alpha1A-and alpha1D-subtypes and uses therefor” (Recordati S.A., Chemical and Pharmaceutical Company, priority 2001, published 2002)
Read-outs that look alike come from different tables or passages of the source.

How the values were obtained:
[1] = test system: conscious rats with partial urethral obstruction; assay: Cystometry in conscious rats obstructed by partial urethra ligature (unstable-bladder contractions); assay type: in vivo, rat; settings: for inhibition in vivo at 1 mg/kg: Rattus norvegicus, 2 min
From the text: A useful animal model system for measuring such pharmacological activity is, without limitation, cystometry in conscious rats with partial bladder-neck obstruction. […] This model is reported in the literature as related to LUTS occurring in patients having obstructive urethral syndromes (Michel, 2000, Drugs of Today. 386 (Supp. B2): 3-6)
In order to obtain a partial obstruction of the urethra, the method previously reported by Malgren (Nalgren et al., 1987, J. Urol. 137:1291-1294; 1988, Neurourol. Urodyn. 6:371), was followed with minor modifications (Guarneri et al., 1991, Pharmacol. Res. 24:263).
Female rats of the Sprague-Dawley strain [Crl:CD(SD)BR, from Charles River Italia, Calco, Como, Italy] weighing 225-275 g were used. The animals were maintained in constant temperature and humidity conditions, on a forced 12-hour light-dark cycle and with food and water ad libitum for at least one week before the experiment.
After being anaesthetized with 3 ml/kg i.p. equitensin (pentobarbital 1.215 g, chloral hydrate 5.312 g, magnesium sulphate 2.657 g, ethanol 12.5 ml, propylene glycol 49.5 ml, distilled water to 125 ml of final volume), the rats were placed in a supine position and the bladder and urethra were exposed via an incision in the shaven abdomens and gently pulling away the muscle portion. The urethra was cannulated with a polyethylene tube with an outside diameter of 1.22 mm, and the urinary bladder was then emptied and, via the cannula introduced through the urethra, filled with physiological saline. A silk (Ethicon 3/0) ligature was placed around the urethra with the cannula inside and the intraurethral cannula was then removed. The abdominal incision was sutured and, immediately after the operative procedure, antibiotic medication (penicillin G 200 000 I.U./kg i.p. and streptomycin 260 mg/kg i.p.) was performed.
Three weeks after the procedure for partially obstructing the urethra, the animals were prepared for cystometry by surgical insertion into the bladder of a catheter, through which the bladder was gradually filled.
The rats, anaesthetised with equitensin 3 ml/kg i.p., were placed in a supine position and, via an incision of about 10 mm in the abdominal wall, the urinary bladder was exposed and gently freed from surrounding tissues.
The urinary bladder was emptied manually and cannulated, via a small incision at the bladder top, with a polyethylene cannula (type PE-50, 0.58 mm I.D. ×0.96 mm O.D.), which was permanently secured to the bladder with silk thread.
The cannula was exposed through a subcutaneous tunnel in the retroscapular area, where it was fastened with a plastic adapter, in order to avoid the risk of removal by the animal. After washing the urinary bladder with physiological saline, the catheter was sealed using a small flame and the abdominal incision was sutured.
To allow evaluation of the effect of a test compound after intravenous administration, the jugular vein was cannulated with a polyethylene cannula (type PE-50, 0.58 mm I.D.×0.96 mm O.D.) filled with heparinised physiological saline. As for the bladder catheter, this cannula, too, was exteriorised, secured and sealed in the retroscapular area.
Two days after the operation, the rats, fasted overnight, were placed in Bollman's cages or in Bollman's cages modified so as to have an opening in the bottom to allow collection of urinated fluid.
After an adaptation period of 20 minutes, the free end of the bladder cannula was connected to a pressure transducer and a special apparatus which allowed infusion into the urinary bladder of physiological saline at 37° C. at a constant rate of 10 ml/hour. Intravesical pressure changes caused by bladder filling were recorded by the pressure transducer which was connected to a recording polygraph.
From the cystometrograms, the frequency and mean amplitude of spontaneous bladder contractions not inducing micturition, termed “unstable-bladder contractions” (UBC), within 2 minutes prior to micturition were evaluated. […]

LUTS = LUTS secondary to BPH; relaxing effects on prostate smooth muscle were present; cited from earlier work

COc1ccccc1N1CCN(CCCNC(=O)c2cccc3c(=O)c(C)c(-c4ccccc4)oc23)CC1 [Rec 15/2739]
inhibition in vivo at 1 mg/kg ([1]; read-out: % inhibition of amplitude of non-effective micturition contractions): 29%
inhibition in vivo at 1 mg/kg ([1]; read-out: % inhibition of frequency of non-effective micturition contractions): 28%
Amplitude of non-effective micturition contractions, After Treat. ([1]; after treatment, 1.0 mg/kg): 7.3 ± 1.3 mmHg
Frequency (number) of non-effective micturition contractions, After Treat. ([1]; after treatment, 1.0 mg/kg): 4.8 ± 0.2
Activity as inhibitors of unstable-bladder contractions (in words) ([1]; obstructed conscious rats, summary of Tables 1 and 2): poorly active
Relief of LUTS in clinical trial (LUTS): did not result in relief of LUTS
